# Data from article PMC9569971, “New Oxazolo[5,4-d]pyrimidines as Potential Anticancer Agents: Their Design, Synthesis, and In Vitro Biological Activity Research” (International Journal of Molecular Sciences, 2022).
# What was measured:
# [1] = MTT viability assay, NHDF; format: cell-based, human; conditions: human, normal human dermal fibroblasts (NHDF), tested 1–500 µM
# [2] = system: BCL-2; experiment: BCL-2 Human ELISA Kit, HT29 lysate; format: cell-based; conditions: lysate of HT29 cells treated with 3g; SD ±0.11
# Procedure: The assay was performed on a lysate of the HT29 colon adenocarcinoma cell line treated with compound 3g. The wells of the assay microplate were coated with a BCL-2-specific antibody, and the BCL-2 present in the test and standards was bound to the antibodies adsorbed in the microwells, which were washed twice with 400 µL of washing buffer per well with careful aspiration. The washing buffer was left in the wells for 15 s before aspiration. Care was taken not to scratch the surface of the microwells. Following the final washing step, the wells were emptied and excess washing buffer was discarded. Two rows of the human standard BCL-2 were prepared at dilutions ranging from 32.0 to 0.5 ng/mL. Biotin conjugate was prepared, and 50 µL of biotin conjugate was added to all wells, covered with adhesive foil, and incubated at room temperature (18 to 25 °C) for 2 h on a microplate shaker. The adhesive film was removed and washed 3 times. […] The color change of the mixture was monitored with an ELISA reader at 620 nm. […] The results were read immediately after the stop solution was added. The reading was taken at the original wavelength of 450 nm. […]
# Biological assays were performed in three independent replicates, and each replicate used four samples. […] For the assessment of cytotoxicity, mathematical models were developed using the GraphPad PRISM software, based on which CC50 was determined. […]
# [3] = system: metastatic colon adenocarcinoma (LoVo); experiment: MTT viability assay, LoVo; format: cell-based, human
# Procedure: (§1) When the confluence was greater than 70%, adherent cell lines were detached from the bottle surface with a TrypLE solution and then used in assays or reduced. The cells were collected into centrifuge tubes and centrifuged at 1000× g for 5 min at room temperature. The supernatant was removed to dry. The cell pellets were then resuspended in an appropriate medium. The cells were counted using a Bürker chamber and resuspended in 96-well plates to a cell density of 10,000 cells per well for MTT assay. For the rhodamine accumulation test and the detection of apoptosis assay, cells were seeded at a density of 30,000 per well. In the migration assay, cells were seeded at a density of 20,000 per well, and monolayer formation was awaited.
# In this study, normal human dermal fibroblasts (NHDFs), breast cancer cells (MCF7), human lung adenocarcinoma cells (A549), murine fibroblasts (L929), colon adenocarcinoma cells (HT29), and colorectal adenocarcinoma cells (LoVo) were used. All cell lines were cultured in the recommended media. […] The human lung adenocarcinoma cell line A549 and breast cancer cell line MCF-7 were obtained from the ECACC. These cell lines were cultured in Eagle’s minimal essential medium (MEM). Murine fibroblast L929 (Sigma-Aldrich, Merck Group, Headquarters, Darmstadt, Germany; the European Collection of Authenticated Cell Cultures—ECACC) cells were grown in DMEM. […] All media were supplemented with 10% FBS and 100 µg/mL of penicillin–streptomycin.
# All compounds were dissolved in DMSO and the reference drugs were dissolved in physiological saline to concentrations of 10 mM. Concentrations from 1 to 500 μM in the media recommended for the cell lines were prepared for the tests.
# All of the synthesized derivatives were evaluated via the MTT assay. All cell lines were seeded into 96-well plates at a density of 10,000 cells per well. To allow the cells to adhere to the surface of the plates, they were incubated overnight before the application of the test compounds. […] The tests were performed for concentrations of 1, 5, 10, 25, 50, 100, 250, and 500 μM. The solutions of the test compounds were removed from the culture on the 96-well plates. […] The supernatant was then removed. The violet crystal was dissolved in isopropanol for 30 min by shaking. Absorbance was measured at 570 nm.
# Biological assays were performed in three independent replicates, and each replicate used four samples. Three repetitions were made for the ELISA determinations. For the assessment of cytotoxicity, mathematical models were developed using the GraphPad PRISM software, based on which CC50 was determined. The values of CC50 were estimated based on nonlinear regression using the dependence of the biological effect on the molar concentrations of the compounds (four-parameter logistic model with Hill slope).
# [4] = system: HT29 cells; experiment: Migration (scratch) assay; format: cell-based, human; conditions: control T 155558.2, control T0 544366.45
# Procedure: The scratch test was performed to verify that the tested compound 3g could inhibit the formation of metastases by the HT29 cell line. The seeded HT29 cells were incubated until they formed a monolayer over the entire surface of the well. Then, a scratch test was performed by making a scratch in the monolayer and measuring its width—that is, To, amounting to 544,366.45 μm^2. Freshly prepared compounds were added to the HT29 cells at concentrations of 10, 25, 50, and 100 μM. Breeding plates were incubated for 24 h. The next day, scratch width was measured again using the ImageJ open-source platform. […] The lowest cellular overgrowth of HT29 culture occurred at the concentration of 100 μM for the compound. Compound 3g inhibited the migration of HT29 cells more strongly than the reference drugs, showing that it has the potential to inhibit metastasis. The width of the scratch after 24 h when no compound was applied to the cells was used as a control (T = 155,558.2 μm^2).
# as §1, with “All cell lines were grown in 5% CO2 at 95% humidity and 37 °C, with both morphology and confluence assessed twice per week. When” for “When”
# After seeding, HT29 cells were incubated until they formed a monolayer over the entire surface of the well. A scratch was made on the surface overgrown with cells, and then photomicrographs of the scratch were taken using the EVOS FL microscope. The freshly prepared compound 3g and the reference drugs were added at concentrations of 10, 25, 50, and 100 µM. Then, they were incubated for 24 h, and micrographs were performed at that time using the EVOS FL microscope. The scratch width was measured using the ImageJ open-source platform. The measurement of scratch width was also performed after 24 h without adding compounds.
compound,measurement,setting,value
"Cc1noc(N)c1-c1nc2c(NCCCN(C)C)ncnc2o1 [Compound 3g, 2-(5-Amino-3-methylisoxazol-4-yl)-7-N-[3-(N,N-dimethylamino)propyl]aminooxazolo[5,4-d]pyrimidine]",CC50,[1],156 ± 15.5 µM
same,BCL-2 concentration,[2],0.41 ng/mL
same,SI (selectivity index),[3]; CC50 NHDF / CC50 LoVo,0.695
same,CC50,"[3]; Homo sapiens, LoVo, MTT, tested 1–500 µM",224 ± 17.1 µM
same,"scratch width after 24 h, mean",[4]; 10 μM,180844 μm^2
same,"scratch width after 24 h, mean",[4]; 25 μM,218581.6 μm^2
same,"scratch width after 24 h, mean",[4]; 50 μM,245687.8 μm^2
same,"scratch width after 24 h, mean",[4]; 100 μM,314566.8 μm^2
